Publication PMC7139703, “Thiopurine Derivative-Induced Fpg/Nei DNA Glycosylase Inhibition: Structural, Dynamic and Functional Insights” (International Journal of Molecular Sciences, 2020)
Where two headings read alike, the source gives them in different places.

Assays:
LlFpg = biological target: T1, LlFpg (Lactococcus lactis subsp. cremoris, UniProt P42371); assay: LlFpg 8-oxoG-DNA glycosylase/AP lyase activity assay (Urea-PAGE radioassay); format: biochemical; details: for IC50: catalytic activity at 37 °C, compound stock (redox mixture) in DMSO, 20 nM 8-oxoG:C 24-mer, 2 nM LlFpg
T1 construct: made in house; host or cells: E. coli BH540 (fpg defective)
Method: Figure 1 Effect of 2-thioxanthine (2TX)-derivatives on Fpg activity. A total of 20 nM of 5′-[^32P]-8-oxoG-containing 24-bp DNA duplex (labeled on the damaged strand) was incubated with 2 nM of LlFpg alone (dimethyl sulfoxide (DMSO) control) or with the indicated 2TX and 2TX-derivatives (TXn) concentrations, as described in the “Materials and Methods” section. (a) Screening of TXn for Fpg inhibition. Averages and standard deviations were obtained from at least three independent experiments. Mono- and di-thiolated compounds are highlighted in red and blue, respectively. (b) Dose-response curves for best inhibitors. Each data point represents the mean value obtained from at least three independent measurements.
(§1) Fpg, hNeil1 and mvNei1 are bifunctional DNA glycosylases associated with concerted DNA glycosylase activity (cleavage of the N-glycosidic bond between the base lesion and the C1′ of the deoxyribose) and AP lyase activity that comprises the successive cleavage of the phosphodiester bonds at the 3′ and 5′ of the resulting abasic (AP) site, respectively (β, δ-elimination). Thus, AP sites that result from the excision of the damaged base are quantitatively converted into one nucleoside gap by these enzymes. The DNA glycosylase/AP lyase activity of each enzyme was measured by incubating 20 nM of 24-mer DNA duplexes ([OG:C] and [DHU:G] for Fpg and hNeil1/mvNei1, respectively) 5′-labeling on the damaged strand (see above) with 2 nM of Fpg, or mvNei1 for 15 min or, with 20 nM of hNeil1 for 30 min at 37 °C in 10 mM Tris-HCl, pH 7.6, 150 mM NaCl, 1 mM EDTA, 0.1 mg/mL BSA and 8% DMSO. The reaction was stopped by the addition of 1 volume of formamide loading buffer (96% formamide, 20 mM Tris/HCl pH 8.0 and 2 mM Na2EDTA), heated at 80 °C for 2 min and then analyzed by 20% Urea-PAGE, as previously described. […] Under these conditions, only 50% of the substrate is converted to the cleavage product (limiting enzyme concentration conditions). For an initial evaluation of the inhibitory effect, 40 µM of 2TX/TXn was used. The thio-compound was added to the reaction mixture before the final addition of the enzyme (competition condition). For the best identified inhibitors, a dose-response curve was generated and IC50^A determined (Figure 1 and Table 1).

mvNei1 = biological target: T2, mvNei1 (Acanthamoeba polyphaga mimivirus, UniProt Q5UQ00); assay: mvNei1 DNA glycosylase/AP lyase activity assay on DHU:G 24-mer duplex; format: biochemical; details: for effect on mvNei1 catalytic activity: 0.2 mM compound
T2 construct: 6His (C); made in house; host or cells: E. coli Rosetta2 (DE3)
Method: Figure 4 Comparative analysis of the effect of 2TX and TXn on Fpg/Nei DNA glycosylases. Enzyme activities were measured as described in the Figure 1 legend using […] of a 5′-[^32P]-24-mer DNA duplex containing either an 8-oxoG opposite C for LlFpg or a […] (DHU) opposite G for hNeil1 and mvNei1. The DNA probe was incubated with the indicated protein concentration and 0.2 mM TXn compounds in the presence or absence of 1 mM dithiothreitol (DTT) and TCEP (a representative experiment is illustrated by the upper histograms). The DNA probe for EMSA was 0.1 nM of 5′-[^32P]-[…] DNA duplex containing THF with LlFpg and mvNei1 (bottom panels: gel autoradiography) with the indicated conditions and as described in ‘Materials and Methods’.
as §1

[1] = read-out: IC50app^A (Fpg/Nei enzyme catalysis) LlFpg
[2] = catalytic activity at 37 °C, compound stock in DMSO, DHU:G 24-mer, read-out: IC50app^A (Fpg/Nei enzyme catalysis) mvNEI1
[3] = IC50app^A (Fpg/Nei enzyme catalysis) LlFpg

T2 sequence (Q5UQ00 whole entry): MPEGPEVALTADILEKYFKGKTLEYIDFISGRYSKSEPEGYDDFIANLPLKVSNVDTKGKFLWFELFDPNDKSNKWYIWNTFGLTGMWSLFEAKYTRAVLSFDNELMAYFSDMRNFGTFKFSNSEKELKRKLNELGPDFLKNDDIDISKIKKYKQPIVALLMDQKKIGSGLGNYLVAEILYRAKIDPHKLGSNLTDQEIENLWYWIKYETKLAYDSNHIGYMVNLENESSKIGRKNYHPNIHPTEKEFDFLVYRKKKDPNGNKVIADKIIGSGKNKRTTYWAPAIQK
T1 sequence (P42371 2-273): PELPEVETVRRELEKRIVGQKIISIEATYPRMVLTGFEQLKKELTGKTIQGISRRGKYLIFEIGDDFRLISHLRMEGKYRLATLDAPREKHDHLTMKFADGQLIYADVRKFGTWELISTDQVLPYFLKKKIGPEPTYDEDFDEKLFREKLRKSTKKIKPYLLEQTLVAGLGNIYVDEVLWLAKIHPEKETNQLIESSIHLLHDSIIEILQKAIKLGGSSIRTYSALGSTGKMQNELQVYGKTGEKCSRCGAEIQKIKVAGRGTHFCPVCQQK

For `O=c1[nH]c(=S)[nH]c2nc[nH]c12` [Compound 2TX, 2-thioxanthine, reference compound], the IC50 (LlFpg; [1]) was 48 ± 4 µM, the “effect on mvNei1 catalytic activity” value (mvNei1; Figure 4) was “did not significantly affect” and the IC50 (mvNei1; [2]) was greater than 500 µM.
With `FC(F)(F)c1nc(S)c2nc[nH]c2n1` [TX13, 2-trifluoromethyl-6-thiopurine] the IC50 (LlFpg; [1]) was 7.5 ± 1 µM, the “effectiveness on Fpg relative to 2TX” value (LlFpg; from IC50app^A) was “seven times more effective than 2TX” and the IC50 (mvNei1; [2]) was greater than 500 µM.
`O=c1[nH]c2[nH]c(=S)[nH]c(=O)c2[nH]1` [TX14, 2-thio-6,8-dioxopurine] showed an IC50 (LlFpg; [3]) of 28 ± 7 µM and an IC50 (mvNei1) greater than 500 µM.
In the case of `O=c1[nH]c(=S)[nH]c2[nH]c(=S)[nH]c12` [TX19], the IC50 (LlFpg; [1]) is reported as 15 ± 1 µM, the “effect on mvNei1 catalytic activity” value (mvNei1; Figure 4) is reported as “apparent inhibitory effects” and the “inhibition of mvNei1 DNA binding and catalytic activities in the presence of TCEP” value (mvNei1; 1 mM TCEP (DTT to a lesser extent), Figure 4) is reported as “suppressed”. It also gave an IC50 (mvNei1; [2]) of 124 ± 4 µM.
For `Nc1ncnc2[nH]c(S)nc12` [TX27], the IC50 (LlFpg; [3]) was 20 ± 2 µM and the IC50 (mvNei1) was 277 ± 18 µM.
